The values that follow come from US20190000908A1, “COMPOSITIONS AND METHODS FOR TREATING AND/OR PREVENTING A URINARY TRACT INFECTION” (priority 2017, published 2019).

Type in all cases: cell-based
In one experiment the test system is E. coli NCTC 9775. As to the kind of experiment: Human Red Blood Cell (HRBC) agglutination assay, E. coli NCTC 9775. Conditions: strain 9775, FIG. 1 Raw C. The protocol:
(§1) A whole blood (type 0 positive) was acquired from a volunteer and stored with EDTA at 4° C. Before the agglutination experiment, the red blood cells were isolated by centrifugation at 800 rpm for 15 minutes (in order to remove the platelets and plasma). The resulting red blood cells were suspended in phosphate buffered (PBS, pH 7.4) and washed three times to remove EDTA and other blood components, after each wash the supernatant was removed and the remaining cells were resuspended in PBS. Finally, RBC were diluted in 10 ml of PBS to create 1% RBC suspension that was stored at 4° C. until use.
(§2) Standard E. coli strains (NCTC 4169 and NCTC 9775) were grown on TSA plates for 24 h at 37° C. Colony was collected with sterile culturing needle and cells suspended in PBS and washed three times with PBS, after each wash the supernatant was removed. The cells were resuspended in PBS at final concentration of 10^9 cells/ml and stored at 4° C. for an hour.
(§3) The experiments were conducted in round bottom 96-well plate, with final volume 200 μl, made of 98 μl of the 1% RBC suspension, 2 μl extract (or PBS) and 100 μl bacterial suspension or PBS (as control). Extract were prepared in advance at different concentrations in PBS (10 mg/ml, 3 mg/ml, 1 mg/ml, 50 μg/ml and 1 μg/ml). […]

Experiment [1] concerns E. coli strains (NCTC 4169 and NCTC 9775). As to the kind of experiment: Human Red Blood Cell (HRBC) agglutination assay, strain not specified for the result. Conditions: human RBC + E. coli; strain not stated. The protocol: as §1, §2, §3
The test system of another experiment is E. coli NCTC 4169. As to the kind of experiment: Human Red Blood Cell (HRBC) agglutination assay, E. coli NCTC 4169. To be noted: strain 4169, FIG. 1 Raw C. The protocol:
as §1, §2, §3

Consider `O=C[C@@H](O)[C@@H](O)[C@H](O)[C@H](O)CO` [D-mannose, D-Mannose], for which the figures for the “D-mannose sensitivity of bacteria-induced RBC agglutination” value in the experiment on E. coli NCTC 9775 and in the experiment on E. coli NCTC 4169 were “D-mannose sensitive” and “not D-mannose sensitive”, respectively. Also, the “concentration that induced agglutination prevention/inhibition” value in experiment [1] was in the range of 5 to 10 mg/mL.
